Values quoted from earlier work in US20250325495A1, “SILK NANOPARTICLE SYNTHESIS: TUNING SIZE, DISPERSITY, AND SURFACE CHEMISTRY FOR DRUG DELIVERY” (Trustees of Tufts College, priority 2022, published 2025).

System: GBM cell lines
Conditions: compared with temozolomide

Structure (SMILES): COc1cccc2c1C(=O)c1c(O)c3c(c(O)c1C2=O)C[C@@](O)(C(=O)CO)C[C@@H]3O[C@H]1C[C@H](N)[C@H](O)[C@H](C)O1 [doxorubicin]
- cytotoxic effects: superior cytotoxic effects
